Active and inactive are the calls of the source. The rule behind the calls is not given here.
Legend:
[1] = test system: Pectobacterium carotovorum; assay: Antibacterial activity against Pectobacterium carotovorum at 1 ug/ml after 24 hr by well diffusion method; assay type: functional; conditions: for zone of inhibition at 1 µg/mL: read-out: IZ
Aspergillus flavus = assay: Antifungal activity against Aspergillus flavus at 1 ug/ml after 48 hr by well diffusion method; assay type: functional; conditions: read-out: IZ
Proteus vulgaris = assay: Antibacterial activity against Proteus vulgaris at 1 ug/ml after 24 hr by well diffusion method; assay type: functional; conditions: for zone of inhibition at 1 µg/mL: read-out: IZ
Lasiodiplodia theobromae = assay: Antifungal activity against Lasiodiplodia theobromae at 1 ug/ml after 48 hr by well diffusion method; assay type: functional; conditions: for zone of inhibition at 1 µg/mL: read-out: IZ
Rhizoctonia solani = assay: Antifungal activity against Rhizoctonia solani at 1 ug/ml after 48 hr by well diffusion method; assay type: functional; conditions: for zone of inhibition at 1 µg/mL: read-out: IZ
Escherichia coli = assay: Antibacterial activity against Escherichia coli at 1 ug/ml after 24 hr by well diffusion method; assay type: functional; conditions: read-out: IZ
Enterococcus faecalis = assay: Antibacterial activity against Enterococcus faecalis at 1 ug/ml after 24 hr by well diffusion method; assay type: functional; conditions: for zone of inhibition at 1 µg/mL: read-out: IZ
Streptococcus faecalis = assay: Antibacterial activity against Streptococcus faecalis at 1 ug/ml after 24 hr by well diffusion method; conditions: read-out: IZ
Klebsiella pneumoniae = assay: Antibacterial activity against Klebsiella pneumoniae at 1 ug/ml after 24 hr by well diffusion method; assay type: functional; conditions: read-out: IZ
HL-60 = assay: Cytotoxicity against Homo sapiens (human) HL60 cells after 96 hr by MTT assay; assay type: functional, cell-based
Micrococcus luteus = assay: Antibacterial activity against Micrococcus luteus at 1 ug/ml after 24 hr by well diffusion method; assay type: functional; conditions: for zone of inhibition at 1 µg/mL: read-out: IZ
Penicillium expansum = assay: Antifungal activity against Penicillium expansum at 1 ug/ml after 48 hr by well diffusion method; assay type: functional; conditions: read-out: IZ
U-937 = assay: Cytotoxicity against Homo sapiens (human) U937 cells after 96 hr by MTT assay; assay type: functional, cell-based
Bacillus subtilis = assay: Antibacterial activity against Bacillus subtilis at 1 ug/ml after 24 hr by well diffusion method; assay type: functional; conditions: read-out: IZ
[2] = Homo sapiens, HL-60, 96 h, read-out: IC50
[3] = Homo sapiens, U-937, 96 h, read-out: IC50

SMILES	zone of inhibition at 1 µg/mL [1]	zone of inhibition at 1 µg/mL (Aspergillus flavus)	zone of inhibition at 1 µg/mL (Proteus vulgaris)	zone of inhibition at 1 µg/mL (Lasiodiplodia theobromae)	zone of inhibition at 1 µg/mL (Rhizoctonia solani)	zone of inhibition at 1 µg/mL (Escherichia coli)	zone of inhibition at 1 µg/mL (Enterococcus faecalis)	zone of inhibition at 1 µg/mL (Streptococcus faecalis)	zone of inhibition at 1 µg/mL (Klebsiella pneumoniae)	IC50 (HL-60; [2])	zone of inhibition at 1 µg/mL (Penicillium expansum)	IC50 (U-937; [3])	zone of inhibition at 1 µg/mL (Bacillus subtilis)	inhibition zone (IZ) [1]	inhibition zone (IZ) (Rhizoctonia solani)	zone of inhibition at 1 µg/mL (Micrococcus luteus)	also measured
CC(=O)C(=NNc1nnc(C)s1)C(C)=O	6 mm	12 mm	7 mm	6 mm	4 mm	8 mm	8 mm	7 mm	8 mm	23 µM	18 mm	24.7 µM	7 mm				inhibition zone (IZ) (Micrococcus luteus): inactive
Cc1nnc(NN=C(C#N)C#N)s1		12 mm	10 mm	8 mm		6 mm	9 mm	6 mm	8 mm	28.1 µM	15 mm		10 mm	inactive	inactive	7 mm	IC50 (U-937; u-937): Not Active
NC(=O)NO [HYDROXYUREA]																	IC50 (HL-60; hl-60): Not Active
CCOC(=O)/C(C#N)=N/Nc1nnc(CC)s1		12 mm		10 mm		9 mm	6 mm	5 mm	7 mm		16 mm		9 mm	inactive	inactive	6 mm	inhibition zone (IZ) (Proteus vulgaris): inactive
CCOC(=O)/C(C#N)=N/Nc1nnc(C)s1		11 mm	8 mm	7 mm		7 mm	7 mm	6 mm	7 mm	22.1 µM	17 mm	19.3 µM	8 mm	inactive	inactive		inhibition zone (IZ) (Micrococcus luteus): inactive
CCc1nnc(NN=C(C(C)=O)C(C)=O)s1	7 mm	10 mm	6 mm	7 mm	6 mm	8 mm	8 mm	8 mm	5 mm		14 mm		8 mm			8 mm	
CC1(C)S[C@@H]2[C@H](NC(=O)[C@H](N)c3ccccc3)C(=O)N2[C@H]1C(=O)O [AMPICILLIN]	31 mm	31 mm	33 mm		29 mm	28 mm		30 mm	29 mm		35 mm		30 mm			32 mm	inhibition zone (IZ) (Lasiodiplodia theobromae): inactive; inhibition zone (IZ) (Enterococcus faecalis): inactive
CCc1nnc(NN=C(C#N)C#N)s1	7 mm	12 mm		15 mm		9 mm	7 mm	8 mm	7 mm		16 mm		11 mm		inactive	6 mm	inhibition zone (IZ) (Proteus vulgaris): inactive
O=c1[nH]cc(F)c(=O)[nH]1 [FLUOROURACIL]										266 µM		4.7 µM					
O=NN(CCCl)C(=O)NCCCl [CARMUSTINE]										30.5 µM		12.3 µM					
